Data as given in PubChem BioAssay (NCI).
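A five-concentration, 48-hour dose response in 96-well plates underlies each endpoint, interpolated linearly between surrounding concentrations. GI50 = concentration required for 50% inhibition of growth. At the TGI there is no net growth.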

What was measured:
Test in all cases: NCI tumour cell line growth inhibition, 48 h
A549 NSCLC = tested on: A549 NSCLC
ACHN renal = tested on: ACHN renal
BT-549 breast = tested on: BT-549 breast
CAKI-1 renal = tested on: CAKI-1 renal
CCRF-CEM leukemia = tested on: CCRF-CEM leukemia
DU-145 prostate = tested on: DU-145 prostate
EKVX NSCLC = tested on: EKVX NSCLC
HCC-2998 colon = tested on: HCC-2998 colon
HCT-116 colon = tested on: HCT-116 colon
HCT-15 colon = tested on: HCT-15 colon
HL-60(TB) leukemia = tested on: HL-60(TB) leukemia
HOP-62 NSCLC = tested on: HOP-62 NSCLC
HOP-92 NSCLC = tested on: HOP-92 NSCLC
HS 578T breast = tested on: HS 578T breast
HT29 colon = tested on: HT29 colon
IGROV1 ovarian = tested on: IGROV1 ovarian
K-562 leukemia = tested on: K-562 leukemia
KM12 colon = tested on: KM12 colon
LOX IMVI melanoma = tested on: LOX IMVI melanoma
M14 melanoma = tested on: M14 melanoma
MALME-3M melanoma = tested on: MALME-3M melanoma
MCF7 breast = tested on: MCF7 breast
MDA-MB-435 = tested on: MDA-MB-435
MOLT-4 leukemia = tested on: MOLT-4 leukemia
NCI-H226 lung = tested on: NCI-H226 lung
NCI-H23 lung = tested on: NCI-H23 lung
NCI-H460 lung = tested on: NCI-H460 lung
NCI-H522 lung = tested on: NCI-H522 lung
NCI/ADR-RES ovarian = tested on: NCI/ADR-RES ovarian
OVCAR-3 ovarian = tested on: OVCAR-3 ovarian
OVCAR-4 ovarian = tested on: OVCAR-4 ovarian
OVCAR-5 ovarian = tested on: OVCAR-5 ovarian
OVCAR-8 ovarian = tested on: OVCAR-8 ovarian
PC-3 prostate = tested on: PC-3 prostate
RPMI-8226 leukemia = tested on: RPMI-8226 leukemia
RXF 393 renal = tested on: RXF 393 renal
SF-268 CNS = tested on: SF-268 CNS
SF-295 CNS = tested on: SF-295 CNS
SF-539 CNS = tested on: SF-539 CNS
SK-MEL-2 melanoma = tested on: SK-MEL-2 melanoma
SK-MEL-28 melanoma = tested on: SK-MEL-28 melanoma
SK-MEL-5 melanoma = tested on: SK-MEL-5 melanoma
SNB-19 CNS = tested on: SNB-19 CNS
SNB-75 CNS = tested on: SNB-75 CNS
SR leukemia = tested on: SR leukemia
SW-620 colon = tested on: SW-620 colon
T-47D breast = tested on: T-47D breast
TK-10 renal = tested on: TK-10 renal
U251 CNS = tested on: U251 CNS
UACC-257 melanoma = tested on: UACC-257 melanoma
UACC-62 melanoma = tested on: UACC-62 melanoma
UO-31 renal = tested on: UO-31 renal
786-0 renal = tested on: 786-0 renal
A498 renal = tested on: A498 renal
COLO 205 colon = tested on: COLO 205 colon
MDA-MB-231 breast = tested on: MDA-MB-231 breast
SN12C renal = tested on: SN12C renal

O=C1/C(=C/c2ccc(O)cc2)COc2ccc(O)c(O)c21
GI50 (A549 NSCLC): 3.6 µM
TGI (A549 NSCLC): > 100 µM
GI50 (ACHN renal): 1.99 µM
TGI (ACHN renal): 4.72 µM
GI50 (BT-549 breast): 1.97 µM
TGI (BT-549 breast): 7.69 µM
GI50 (CAKI-1 renal): 3.02 µM
TGI (CAKI-1 renal): 12.9 µM
GI50 (CCRF-CEM leukemia): 0.652 µM
TGI (CCRF-CEM leukemia): 8.53 µM
GI50 (DU-145 prostate): 2.19 µM
TGI (DU-145 prostate): 5.69 µM
GI50 (EKVX NSCLC): 2.91 µM
TGI (EKVX NSCLC): > 100 µM
GI50 (HCC-2998 colon): 3.61 µM
TGI (HCC-2998 colon): 13.1 µM
GI50 (HCT-116 colon): 1.76 µM
TGI (HCT-116 colon): 3.41 µM
GI50 (HCT-15 colon): 1.31 µM
TGI (HCT-15 colon): 4.07 µM
GI50 (HL-60(TB) leukemia): 1.93 µM
TGI (HL-60(TB) leukemia): 7.41 µM
GI50 (HOP-62 NSCLC): 3.98 µM
TGI (HOP-62 NSCLC): > 100 µM
GI50 (HOP-92 NSCLC): 2.33 µM
TGI (HOP-92 NSCLC): 7.25 µM
GI50 (HS 578T breast): 3.12 µM
TGI (HS 578T breast): > 100 µM
GI50 (HT29 colon): 3.52 µM
TGI (HT29 colon): 16.9 µM
GI50 (IGROV1 ovarian): 2.45 µM
TGI (IGROV1 ovarian): 7.32 µM
GI50 (K-562 leukemia): 0.649 µM
TGI (K-562 leukemia): > 100 µM
GI50 (KM12 colon): 1.99 µM
TGI (KM12 colon): 6.04 µM
GI50 (LOX IMVI melanoma): 1.47 µM
TGI (LOX IMVI melanoma): 3.22 µM
GI50 (M14 melanoma): 3.43 µM
TGI (M14 melanoma): 20.1 µM
GI50 (MALME-3M melanoma): 1.76 µM
TGI (MALME-3M melanoma): 4.58 µM
GI50 (MCF7 breast): 2.18 µM
TGI (MCF7 breast): > 100 µM
GI50 (MDA-MB-435): 2.03 µM
TGI (MDA-MB-435): 4.91 µM
GI50 (MOLT-4 leukemia): 1.99 µM
TGI (MOLT-4 leukemia): > 100 µM
GI50 (NCI-H226 lung): 8.37 µM
TGI (NCI-H226 lung): 34.8 µM
GI50 (NCI-H23 lung): 3.97 µM
TGI (NCI-H23 lung): 34.7 µM
GI50 (NCI-H460 lung): 2.16 µM
TGI (NCI-H460 lung): 4.69 µM
GI50 (NCI-H522 lung): 0.187 µM
TGI (NCI-H522 lung): 0.596 µM
GI50 (NCI/ADR-RES ovarian): 2.91 µM
TGI (NCI/ADR-RES ovarian): > 100 µM
GI50 (OVCAR-3 ovarian): 2.05 µM
TGI (OVCAR-3 ovarian): 5.79 µM
GI50 (OVCAR-4 ovarian): 2.85 µM
TGI (OVCAR-4 ovarian): 65.9 µM
GI50 (OVCAR-5 ovarian): 2.64 µM
TGI (OVCAR-5 ovarian): 7.26 µM
GI50 (OVCAR-8 ovarian): 3.51 µM
TGI (OVCAR-8 ovarian): > 100 µM
GI50 (PC-3 prostate): 2.48 µM
TGI (PC-3 prostate): 13 µM
GI50 (RPMI-8226 leukemia): 0.499 µM
TGI (RPMI-8226 leukemia): 3.68 µM
GI50 (RXF 393 renal): 1.55 µM
TGI (RXF 393 renal): 3.82 µM
GI50 (SF-268 CNS): 2.72 µM
TGI (SF-268 CNS): > 100 µM
GI50 (SF-295 CNS): 5.36 µM
TGI (SF-295 CNS): > 100 µM
GI50 (SF-539 CNS): 1.82 µM
TGI (SF-539 CNS): 4.97 µM
GI50 (SK-MEL-2 melanoma): 6.21 µM
TGI (SK-MEL-2 melanoma): 38.6 µM
GI50 (SK-MEL-28 melanoma): 3.81 µM
TGI (SK-MEL-28 melanoma): 64.6 µM
GI50 (SK-MEL-5 melanoma): 1.81 µM
TGI (SK-MEL-5 melanoma): 4.01 µM
GI50 (SNB-19 CNS): 3.74 µM
TGI (SNB-19 CNS): > 100 µM
GI50 (SNB-75 CNS): 1.78 µM
TGI (SNB-75 CNS): > 100 µM
GI50 (SR leukemia): 1.1 µM
TGI (SR leukemia): > 100 µM
GI50 (SW-620 colon): 2.11 µM
TGI (SW-620 colon): 5.36 µM
GI50 (T-47D breast): 3.31 µM
TGI (T-47D breast): > 100 µM
GI50 (TK-10 renal): 3.12 µM
TGI (TK-10 renal): > 100 µM
GI50 (U251 CNS): 2.62 µM
TGI (U251 CNS): 13.9 µM
GI50 (UACC-257 melanoma): 4.5 µM
TGI (UACC-257 melanoma): > 100 µM
GI50 (UACC-62 melanoma): 1.99 µM
TGI (UACC-62 melanoma): 4.36 µM
GI50 (UO-31 renal): 1.09 µM
TGI (UO-31 renal): 2.74 µM

COc1c(N2CCN(CN3C(=O)C(=O)c4cc(Cl)ccc43)C(C)C2)c(F)cc2c(=O)c(C(=O)O)cn(C3CC3)c12 (stereo unspecified)
GI50 (786-0 renal): > 100 µM
TGI (786-0 renal): > 100 µM
GI50 (A498 renal): 11.9 µM
TGI (A498 renal): 80.9 µM
GI50 (A549 NSCLC): 49.4 µM
TGI (A549 NSCLC): > 100 µM
GI50 (ACHN renal): 32.1 µM
TGI (ACHN renal): > 100 µM
GI50 (BT-549 breast): 37.3 µM
TGI (BT-549 breast): > 100 µM
GI50 (CAKI-1 renal): 24.7 µM
TGI (CAKI-1 renal): > 100 µM
GI50 (COLO 205 colon): 80.6 µM
TGI (COLO 205 colon): > 100 µM
GI50 (DU-145 prostate): 70.6 µM
TGI (DU-145 prostate): > 100 µM
GI50 (EKVX NSCLC): 13.7 µM
TGI (EKVX NSCLC): > 100 µM
GI50 (HCT-116 colon): 29.8 µM
TGI (HCT-116 colon): > 100 µM
GI50 (HCT-15 colon): 31.7 µM
TGI (HCT-15 colon): > 100 µM
GI50 (HL-60(TB) leukemia): 7.29 µM
TGI (HL-60(TB) leukemia): > 100 µM
GI50 (HS 578T breast): 30.4 µM
TGI (HS 578T breast): > 100 µM
GI50 (HT29 colon): 30.9 µM
TGI (HT29 colon): > 100 µM
GI50 (IGROV1 ovarian): > 100 µM
TGI (IGROV1 ovarian): > 100 µM
GI50 (K-562 leukemia): 14 µM
TGI (K-562 leukemia): > 100 µM
GI50 (KM12 colon): 35.2 µM
TGI (KM12 colon): > 100 µM
GI50 (LOX IMVI melanoma): 19 µM
TGI (LOX IMVI melanoma): > 100 µM
GI50 (M14 melanoma): 69.6 µM
TGI (M14 melanoma): > 100 µM
GI50 (MCF7 breast): 26.6 µM
TGI (MCF7 breast): > 100 µM
GI50 (MDA-MB-231 breast): 27.3 µM
TGI (MDA-MB-231 breast): > 100 µM
GI50 (MDA-MB-435): 17.2 µM
TGI (MDA-MB-435): 36.3 µM
GI50 (MOLT-4 leukemia): 4.98 µM
TGI (MOLT-4 leukemia): > 100 µM
GI50 (NCI-H226 lung): 71 µM
TGI (NCI-H226 lung): > 100 µM
GI50 (NCI-H23 lung): 22 µM
TGI (NCI-H23 lung): > 100 µM
GI50 (NCI-H460 lung): 30.6 µM
TGI (NCI-H460 lung): > 100 µM
GI50 (NCI-H522 lung): > 100 µM
TGI (NCI-H522 lung): > 100 µM
GI50 (NCI/ADR-RES ovarian): 76.4 µM
TGI (NCI/ADR-RES ovarian): > 100 µM
GI50 (OVCAR-3 ovarian): 30 µM
TGI (OVCAR-3 ovarian): > 100 µM
GI50 (OVCAR-4 ovarian): 55.5 µM
TGI (OVCAR-4 ovarian): > 100 µM
GI50 (OVCAR-5 ovarian): 85.9 µM
TGI (OVCAR-5 ovarian): > 100 µM
GI50 (OVCAR-8 ovarian): 51.9 µM
TGI (OVCAR-8 ovarian): > 100 µM
GI50 (PC-3 prostate): 10.8 µM
TGI (PC-3 prostate): > 100 µM
GI50 (RPMI-8226 leukemia): 9.07 µM
TGI (RPMI-8226 leukemia): 25.7 µM
GI50 (RXF 393 renal): 34.4 µM
TGI (RXF 393 renal): > 100 µM
GI50 (SF-268 CNS): 26.8 µM
TGI (SF-268 CNS): > 100 µM
GI50 (SF-295 CNS): 91.7 µM
TGI (SF-295 CNS): > 100 µM
GI50 (SF-539 CNS): > 100 µM
TGI (SF-539 CNS): > 100 µM
GI50 (SK-MEL-2 melanoma): > 100 µM
TGI (SK-MEL-2 melanoma): > 100 µM
GI50 (SK-MEL-28 melanoma): 97.5 µM
TGI (SK-MEL-28 melanoma): > 100 µM
GI50 (SK-MEL-5 melanoma): 15.6 µM
TGI (SK-MEL-5 melanoma): 34.8 µM
GI50 (SN12C renal): 48.2 µM
TGI (SN12C renal): > 100 µM
GI50 (SNB-19 CNS): 92.2 µM
TGI (SNB-19 CNS): > 100 µM
GI50 (SNB-75 CNS): > 100 µM
TGI (SNB-75 CNS): > 100 µM
GI50 (SR leukemia): 4.51 µM
TGI (SR leukemia): > 100 µM
GI50 (SW-620 colon): 14.2 µM
TGI (SW-620 colon): 75.8 µM
GI50 (TK-10 renal): 27.1 µM
TGI (TK-10 renal): > 100 µM
GI50 (U251 CNS): 41.3 µM
TGI (U251 CNS): > 100 µM
GI50 (UACC-257 melanoma): 27.7 µM
TGI (UACC-257 melanoma): 72.9 µM
GI50 (UACC-62 melanoma): 20.6 µM
TGI (UACC-62 melanoma): 65.3 µM
GI50 (UO-31 renal): > 100 µM
TGI (UO-31 renal): > 100 µM
